# Test results published in patent US8357694B2, “Substituted 5,6-dihydro-6-phenylbenzo[F]isoquinolin-2-amine compounds” (ArQule, Inc., priority 2008, dated 2013).
# Where a name gives a salt, the structure may show the parent alone.
# Legend:
# [1] = molecular target: T1, FGFR2 kinase (Homo sapiens, UniProt P21802, N549H); assay: fluorescent ELISA FGFR2 kinase assay (biochemical); settings: FGFR2 (N549H); read-out: Biochemical data (IC50-μM) FGFR2 (N549H)
# T1 construct: purchased Millipore 14-742
# T1 sequence (P21802 456-770 N549H limits assumed): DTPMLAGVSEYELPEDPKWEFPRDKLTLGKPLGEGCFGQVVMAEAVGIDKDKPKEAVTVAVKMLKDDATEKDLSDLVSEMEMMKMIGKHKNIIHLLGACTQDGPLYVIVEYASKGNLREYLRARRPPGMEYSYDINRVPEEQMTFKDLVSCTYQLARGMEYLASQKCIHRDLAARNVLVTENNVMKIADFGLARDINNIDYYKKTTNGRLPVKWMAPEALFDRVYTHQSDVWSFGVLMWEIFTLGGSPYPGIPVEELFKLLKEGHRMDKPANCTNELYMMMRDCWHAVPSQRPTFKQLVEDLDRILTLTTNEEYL
# Protocol: The enzymatic assays described herein are conducted according to the following procedures from commercially available reagents. In one, non limiting, example, a fluorescent ELISA assay is used to identify and characterize inhibitors of FGFR2 kinase as described herein. This heterogeneous assay utilizes a biotinylated peptide with a tyrosine motif as a substrate and an anti-phospho-tyrosine antibody to measure phosphorylation of the substrate. […] The reaction is incubated for 60 minutes. As the reaction proceeds, FGFR2 phosphorylates tyrosines in the peptide. […] Peptides are captured for 30 minutes at room temperature, the phosphorylation of peptides continues during this phase. The reaction is stopped by washing the streptavidin-coated plate 6 times with TBST. […] Unbound anti-phospho-tyrosine antibody is removed by washing the streptavidin-coated plate 6 times with TBST. […] Unbound secondary antibody is removed by washing the streptavidin-coated plate 6 times with TBST.
# [2] = system: SNU-16; assay: MTS assay, SNU-16; type: cell-based; settings: Homo sapiens
# Protocol: (§1) Cells were maintained at 37° C., 5% CO2 in DMEM media supplemented with 1% fetal bovine serum, penicillin/streptomycin and fungizone (Invitrogen). Cells were seeded into 96-well tissue culture plates at 3000 per well and cultured at 37° C. for 18 hours. Test compounds were dissolved and diluted to 300× in DMSO then diluted 1:40 in DMEM.
# [3] = system: AN3-CA; assay: MTS cell kill assay, AN3-CA; type: cell-based; settings: Homo sapiens
# Protocol: as §1
# [4] = system: RT4; assay: MTS cell kill assay, RT4; type: cell-based; settings: Homo sapiens, RT-4, RT4
# Protocol: as §1
# [5] = system: RT112; assay: MTS cell kill assay, RT112; type: cell-based; settings: Homo sapiens, RT-112, RT112
# Protocol: as §1
# [6] = system: KATO III; assay: MTS assay, KATO III; type: cell-based
# Protocol: as §1
# [7] = system: DLD-1; assay: MTS cell kill, DLD-1; type: cell-based
# Protocol: as §1
# [8] = system: MDA-MB-231; assay: MTS cell kill, MDA-MB-231; type: cell-based
# Protocol: as §1
# [9] = system: NCI-H1299; assay: MTS cell kill, NCI-H1299; type: cell-based
# Protocol: as §1
# [10] = system: PACA-2; assay: MTS cell kill, PACA-2; type: cell-based
# Protocol: as §1
# [11] = system: PC-3; assay: MTS cell kill, PC-3; type: cell-based
# Protocol: as §1
# [12] = system: KATO III; assay: in vitro PD assay, KATO III; type: cell-based; settings: Homo sapiens
# [13] = system: SNU-16; assay: in vitro PD assay, SNU-16; type: cell-based; settings: Homo sapiens
# [14] = SNU-16, SNU-16, read-out: MTS cell kill data (IC50-μM) SNU-16
IC50 [1] [µM],SMILES,"IC50 [2, 14] [µM]",IC50 [3] [µM],IC50 [4] [µM],IC50 [5] [µM],MTS cell kill data (% inhibition) KATO III [6],MTS cell kill data (% inhibition) DLD-1 [7],MTS cell kill data (% inhibition) MDA-MB-231 [8],MTS cell kill data (% inhibition) NCI-H1299 [9],MTS cell kill data (% inhibition) PACA-2 [10],MTS cell kill data (% inhibition) PC-3 [11],other results
0.014,"COCCN1CCN(CCc2ccc(Nc3ncc4c(n3)-c3ccccc3[C@H](c3ccccc3F)C4)cc2)CC1 [Example 66, (R)-6-(2-fluorophenyl)-N-(4-(2-(4-(2-methoxyethyl)piperazin-1-yl)ethyl)phenyl)-5,6-dihydrobenzo[h]quinazolin-2-amine hydrochloride]",1.28,0.361,1.55,,,,,,,,
0.0443,"COCCN1CCN(CCc2cc(Nc3ncc4c(n3)-c3ccccc3[C@H](c3ccccc3F)C4)ccc2F)CC1 [Example 175, (R)-N-(4-fluoro-3-(2-(4-(2-methoxyethyl)piperazin-1-yl)ethyl)phenyl)-6-(2-fluorophenyl)-5,6-dihydrobenzo[h]quinazolin-2-amine hydrochloride salt]",1.04,2.39,2.97,1.54,,,,,,,
0.0511,"Fc1ccccc1[C@@H]1Cc2cnc(Nc3cccc(CCN4CCNCC4)c3)nc2-c2ccccc21 [Example 163, (R)-6-(2-fluorophenyl)-N-(3-(2-(piperazin-1-yl)ethyl)phenyl)-5,6-dihydrobenzo[h]quinazolin-2-amine]",0.894,1.39,1.38,1.19,,,,,,,melting point: 165 to 167 °C
0.0255,"COCCNCc1cccc(Nc2ncc3c(n2)-c2ccccc2[C@H](c2ccccc2F)C3)c1 [Example 178, (R)-6-(2-fluorophenyl)-N-(3-((2-methoxyethylamino)methyl)phenyl)-5,6-dihydrobenzo[h]quinazolin-2-amine hydrochloride]",0.711,1.77,4.28,2.68,,,,,,,
0.047,"COCCN1CCN(CCc2cccc(Nc3ncc4c(n3)-c3ccccc3[C@@H](c3ccccc3F)C4)c2)CC1 [Example 164, (S)-6-(2-fluorophenyl)-N-(3-(2-(4-(2-methoxyethyl)piperazin-1-yl)ethyl)phenyl)-5,6-dihydrobenzo[h]quinazolin-2-amine]",1.34,1.38,2.97,1.51,,,,,,,
,COc1ccc(OC)c(CC(=O)Nc2ccc(C3Cc4cnc(NCCCCN(C)C)nc4-c4ccccc43)cc2)c1 (stereo not drawn) [Example 473],,,,,A (A = 80-100% inhibition),A (A = 80-100% inhibition),A (A = 80-100% inhibition),A (A = 80-100% inhibition),A (A = 80-100% inhibition),A (A = 80-100% inhibition),
,"CN(C)CCCCNc1ncc2c(n1)-c1ccccc1C(c1ccc(NS(=O)(=O)c3cccc4cccnc34)cc1)C2 (stereo not drawn) [Example 434, N-[4-(2-{[4-(dimethylamino)butyl]amino}-5,6-dihydrobenzo[h]quinazolin-6-yl)phenyl]quinoline-8-sulfonamide]",,,,,A (A = 80-100% inhibition),A (A = 80-100% inhibition),A (A = 80-100% inhibition),A (A = 80-100% inhibition),A (A = 80-100% inhibition),A (A = 80-100% inhibition),
,"CN(C)CCCCNc1ncc2c(n1)-c1ccccc1C(c1ccc(NS(=O)(=O)c3ccc(-c4ccccc4)cc3)cc1)C2 (stereo not drawn) [Example 421, N-[4-(2-{[4-(dimethylamino)butyl]amino}-5,6-dihydrobenzo[h]quinazolin-6-yl)phenyl]biphenyl-4-sulfonamide]",,,,,A (A = 80-100% inhibition),A (A = 80-100% inhibition),A (A = 80-100% inhibition),A (A = 80-100% inhibition),A (A = 80-100% inhibition),A (A = 80-100% inhibition),
,"CCN(CC)CCNC(=O)c1c(C)[nH]c(/C=C2\C(=O)Nc3ccc(F)cc32)c1C [Sunitinib, reference compound]",,,,,,,,,,,"IC50 ([6]; Homo sapiens, read-out: MTS IC50): 300 nM; IC50 ([2]; SNU-16, read-out: MTS IC50): 1.1 µM; IC50 [12]: 1600 nM; IC50 [13]: 4300 nM"
,"CN(C)CCCCNc1ncc2c(n1)-c1ccccc1C(c1ccc(NC(=O)c3ccccc3Br)cc1)C2 (stereo not drawn) [Example 466, 2-bromo-N-[4-(2-{[4-(dimethylamino)butyl]amino}-5,6-dihydrobenzo[h]quinazolin-6-yl)phenyl]benzamide]",,,,,A (A = 80-100% inhibition),A (A = 80-100% inhibition),B (B = 50-79% inhibition),A (A = 80-100% inhibition),A (A = 80-100% inhibition),B (B = 50-79% inhibition),
0.0174,"CN1CCN(CCc2cccc(Nc3ncc4c(n3)-c3ccccc3[C@H](c3ccccc3F)C4)c2)CC1 [Example 161, (R)-6-(2-fluorophenyl)-N-(3-(2-(4-methylpiperazin-1-yl)ethyl)phenyl)-5,6-dihydrobenzo[h]quinazolin-2-amine hydrochloride]",0.397,0.738,1.47,0.627,,,,,,,
0.0433,"CN1CCN(CCc2cc(Nc3ncc4c(n3)-c3ccccc3[C@H](c3ccccc3F)C4)ccc2F)CC1 [Example 174, (R)-N-(4-fluoro-3-(2-(4-methylpiperazin-1-yl)ethyl)phenyl)-6-(2-fluorophenyl)-5,6-dihydrobenzo[h]quinazolin-2-amine hydrochloride salt]",1.16,2,3.54,1.52,,,,,,,
,"Cc1cccc(C(=O)Nc2ccc(C3Cc4cnc(NCCCCN(C)C)nc4-c4ccccc43)cc2)c1 (stereo not drawn) [Example 469, N-[4-(2-{[4-(dimethylamino)butyl]amino}-5,6-dihydrobenzo[h]quinazolin-6-yl)phenyl]-3-methylbenzamide]",,,,,A (A = 80-100% inhibition),A (A = 80-100% inhibition),A (A = 80-100% inhibition),A (A = 80-100% inhibition),A (A = 80-100% inhibition),A (A = 80-100% inhibition),
,"CN(C)CCCCNc1ncc2c(n1)-c1ccccc1C(c1ccc(NS(=O)(=O)c3ccc(Br)s3)cc1)C2 (stereo not drawn) [Example 427, 5-bromo-N-[4-(2-{[4-(dimethylamino)butyl]amino}-5,6-dihydrobenzo[h]quinazolin-6-yl)phenyl]thiophene-2-sulfonamide]",,,,,A (A = 80-100% inhibition),A (A = 80-100% inhibition),A (A = 80-100% inhibition),A (A = 80-100% inhibition),A (A = 80-100% inhibition),B (B = 50-79% inhibition),
,"CCCc1ccc(C(=O)Nc2ccc(C3Cc4cnc(NCCCCN(C)C)nc4-c4ccccc43)cc2)cc1 (stereo not drawn) [Example 470, N-[4-(2-{[4-(dimethylamino)butyl]amino}-5,6-dihydrobenzo[h]quinazolin-6-yl)phenyl]-4-propylbenzamide]",,,,,A (A = 80-100% inhibition),A (A = 80-100% inhibition),A (A = 80-100% inhibition),A (A = 80-100% inhibition),A (A = 80-100% inhibition),A (A = 80-100% inhibition),
